Key:
Assay type in all cases: cell-based
SY5Y cells = test: Apoptosis assay (AnnexinV FITC staining after cisplatin or etoposide) in SY5Y cells; conditions: cisplatin 24 h post transfection, compared to control
Procedure: (§1) 24 hours post-transfection cells were treated with cisplatin (10 µM) or etoposide (1-100 μM), followed by staining with AnnexinV FITC (BD Biosciences). Cells showing FITC staining, loss of cell volume, loss of refractility, and membrane blebbing were scored as apoptotic. At least 500 cells were counted in each well.
as §1, with “μM)” for “µM)”, “([…]” for “(1-100”, “well. The data represent mean±S.D. from at least three independent experiments.” for “well.”

HeLa cells = test: Apoptosis assay (AnnexinV FITC staining after cisplatin or etoposide) in HeLa cells; conditions: cisplatin 24 h post transfection, compared to control miRNA
Procedure: as §1
as §1, with “μM)” for “µM)”, “([…]” for “(1-100”, “well. The data represent mean±S.D. from at least three independent experiments.” for “well.”

3′UTR of TGF-β = test: Renilla luciferase reporter with 3′UTR / mirLAT target site of TGF-β in SY5Y cells
Procedure: (§2) Cells were co-transfected with pCDNA or PstMlu (1 μg) and the respective reporter constructs (500 ng) along with pSV-βgal (10 ng). For induction of TGF-p signaling, 24 h following transfection the cells were treated with 10 ng/ml of recombinant TGF-β1 protein (R&D systems). Reporter activity was measured using a appropriate assay kits (promega).
(§3) SY5Y cells were maintained in RPMI medium with 10% fetal calf serum and antibiotics. HeLa cells were grown in DMEM medium supplemented with 5% fetal calf serum and antibiotics. Plasmids having the PstMlu fragment of LAT and its deletion mutant ΔSty have been described. GFP-shRNA pSilencer plasmid was a kind gift from Dr Kuan-Teh Jeang, NIH, USA. The SBE4-Luc construct was a kind gift from Dr Anita Roberts, NIH, USA. The pGL3-control and pSV-βgal plasmids were obtained from Promega. The pRL-TK vector was obtained from Dr Zissimos Mourelatos, University of Pennsylvannia, USA. […] Recombinants were scored for reversion of deletion in ΔSty resulting in virus which is genetically similar to wild type virus. […]
(§4) Cells were co-transfected with pCDNA or PstMlu (1 μg) and the respective reporter constructs (500 ng) along with pSV-βgal (100 ng). […] Luciferase activity was measured using a renilla or firefly Luciferase assay kit (promega). β-galactosidase activity was determined in all lysates (promega) according to manufacturer's instructions. […]

3′UTR of SMAD-3 = test: Renilla luciferase reporter with 3′UTR / mirLAT target site of SMAD-3 in SY5Y cells
Procedure: as §2, §3, §4

[1] = system: TGF-β/SMAD-dependent transcription; test: SBE4-Luc TGF-β responsive reporter assay in SY5Y cells; conditions: 10 ng/ml recombinant TGF-β1
Procedure: as §2
Cells were co-transfected with pCDNA or PstMlu (1 μg) and the respective reporter constructs (500 ng) along with pSV-βgal (100 ng). For induction of TGF-β signaling, 24 h following transfection the cells were treated with 10 ng/ml of recombinant TGF-β 1 protein (R&D systems) for 12-16 hours at 37° C. in serum free media. Cells were lysed using the reporter lysis buffer (promega). Luciferase activity was measured using a renilla or firefly Luciferase assay kit (promega). β-galactosidase activity was determined in all lysates (promega) according to manufacturer's instructions. The Luciferase activity in all samples was normalized to the amount of β-galactosidase activity.

TGF-β = TGF-β expression (RT-PCR, latent TGF-β1 ELISpot); conditions: SY5Y cells
Procedure: (§5) RNA was isolated using Trizol reagent (Invitrogen). RNA was reverse transcribed using Superscript II RT enzyme (Invitrogen). Northern blot analysis of 50-60 μg total RNA was done as described previously. Western blot analysis was performed on whole cell lysates using Dicer polyclonal antibody and β-actin antibody (Amersham). SMAD-3 and TGF-β receptor I antibodies were from Abcam.
(§6) RNA was isolated using Trizol reagent according to the manufacturer's instruction. RNA was reverse transcribed using Superscript II RT enzyme (Invitrogen). Dicer, TGF-β 1, SMAD-3, TGF-β receptor I and GAPDH cDNA were amplified using gene specific primers. Northern blot analysis of 50-60 μg total RNA was done. Radioactive probes were generated using Starfire oligonucleotide labeling system (IDT). Western blot analysis was performed on whole cell lysates using Dicer polyclonal antibody, a kind gift from Dr Ramin Shiekhattar, Wistar Institute, Philadelphia, USA and β-actin antibody (Amersham). SMAD-3 and TGF-β receptor I antibodies were from Abcam. […] Synthetic RNA molecule corresponding to the mirLAT pre-miRNA (Dhramacon) was radiolabelled by polynucleotide kinase reaction (Invitrogen), column purified and incubated with 2 U Recombinant Dicer enzyme (Stratagene) at 37° C. for 16 hours and analyzed by gel electrophoresis and exposure to a phosphor imager screen.

SMAD-3 = SMAD-3 expression (RT-PCR, Western blot); conditions: SY5Y cells
Procedure: as §5, §6

[2] = mutant target site that disrupts mirLAT binding
[3] = single copy of wild-type mirLAT target site

Substance | cisplatin-induced apoptosis (percentage apoptosis) (SY5Y cells) | cisplatin-induced apoptosis (percentage apoptosis) (HeLa cells) | luciferase activity, mutant TGF-β target site construct (3′UTR of TGF-β; [2]) | reduction in luciferase activity, wild-type TGF-β target site construct (3′UTR of TGF-β; [3]) | luciferase activity, mutant SMAD-3 target site construct (3′UTR of SMAD-3; [2]) | reduction in luciferase activity, wild-type SMAD-3 target site construct (3′UTR of SMAD-3; [3]) | TGF-β mediated induction of SBE4-Luc reporter [1] | mRNA levels / expression of TGF-β (TGF-β) | mRNA levels / expression of SMAD-3 (SMAD-3)
5′-GUGGCGGCCCGGCCCGGGGCCTT-3′ [mirLAT] | significant reduction in apoptosis | significant reduction in apoptosis | does not show any significant decrease in luciferase activity | up to 90% | does not show any significant decrease in luciferase activity | up to 90% | significant reduction in TGF-β mediated induction |  | 
CCAACUAUUGCUUCAGCUCTT (chemistry not given here) [TGF-β siRNA, siRNA directed against TGF-β (Ambion)] | confers resistance to apoptosis |  |  |  |  |  |  | inhibited | 
GCACAUAAUAACUUGGACCTT (chemistry not given here) [SMAD-3 siRNA, siRNA directed against SMAD-3 (Ambion)] | confers resistance to apoptosis |  |  |  |  |  |  |  | inhibited
